Reference: PubChem BioAssay AID1963869 (Molecular Pharmacology Branch, DTP, NCI, 2024)
Several values for one entry are separate records, joined by “and”; a condition that tells them apart may be missing. Equal values may be shown once.

test system: KRAS patient-derived spheroids with HUVEC/MSC, viability; experiment: Anticancer human tumor 323965-272-R-J2-PDC patient-derived pancreatic carcinoma cell line growth inhibition [KRAS2]; conditions: compound 0.316 µM; stronger effect = lower value
From the text: Multicellular complex tumor spheroid response to RAS pathway inhibitors in combination with a targeted agents in patient-derived cell lines with oncogenic KRAS variants from multiple cancer types
A high-throughput screen of multi-cell type tumor spheroids was designed to identify active combinations of targeted small molecules and KRAS pathway inhibitors. Complex spheroids include a stromal component modeled by human endothelial cells (HUVEC) and fibroblasts modeled by human mesenchymal stem cells (MSCs). The concentration ranges selected for each drug and investigational agent were based upon clinically achievable concentrations if the clinical Cmax of the agent was known.
Compounds. The drugs and investigational agents: BI-3406 (NSC825286), BAY-293 (NSC824723), batoprotafib (TNO155; NSC825523), sotorasib (AMG 510; NSC818433), MRTX1257 (NSC819558), elimusertib (BAY 1895344; NSC800525), molibresib (GSK525762; NSC774829), temuterkib (LY3214996; NSC803410), venetoclax (NSC766270), alisertib (NSC759677), olaparib (NSC753686), talazoparib (NSC767125), erdafitinib (NSC781556), ipatasertib (NSC767898), cabozantinib (NSC761068), nintedanib (NSC756659), abemaciclib (NSC768073), docetaxel (NSC628503), trametinib (NSC758246), and sapanisertib (NSC764658) were obtained from the National Cancer Institute (NCI) Developmental Therapeutics Program Chemical Repository. The FDA-approved anticancer drug set is available from the Developmental Therapeutics Program. […] The stock solutions were prepared in dimethyl sulfoxide (DMSO, Sigma-Aldrich, St. Louis, MO, cat. D2650) at 800-fold the tested concentration and stored at -70 degrees C prior to their use. All drugs and investigational agents were tested over a range starting from a high concentration at or near the clinical Cmax and decreasing in half-log increments. If the clinical Cmax for an agent had not been determined, the highest concentration tested was 10 microM.
Cell Culture. All cells were maintained in an incubator at 37 degrees C and 5% CO2 with 95% humidity. The PDC lines were cultured according to standard operating procedures established by the NCI PDMR (https://pdmr.cancer.gov/sops/default.htm). Briefly, all PDCs were thawed and cultured in Matrigel-coated flasks prepared with a working solution of 1X Ham's F-12 nutrient mix, without supplementation (Invitrogen, Waltham, MA, cat. 11765054), 100 U/mL penicillin-streptomycin (Invitrogen, cat. 15140122), and 2.5% Matrigel (Corning Inc., Corning, NY, cat. 354248) for the first three passages. All PDCs were cultured in complete DMEM/F-12 media containing advanced DMEM/F-12 (Invitrogen, cat. 12634028), 4.9% defined fetal bovine serum, heat inactivated (HyClone Laboratories Inc., Logan, UT, cat. SH30070.03HI), 389 ng/mL hydrocortisone (Sigma-Aldrich, cat. H4001), 9.7 ng/mL human EGF recombinant protein (Invitrogen, cat. PHG0313), 23.4 microg/mL adenine (Sigma-Aldrich, cat. A2786), 97.3 U/mL penicillin-streptomycin (Invitrogen, cat. 15140122), 1.9 mM L-glutamine (Invitrogen, cat. 25030081), and 9.7 microM Y-27632 dihydrochloride (Tocris Bioscience, Bristol, United Kingdom, cat. 1254). The PDCs were cultured in complete DMEM/F12 media without 9.7 microM Y-27632 dihydrochloride for at least two passages prior to the screen. The established cell line HOP-62 was cultured in RPMI 1640 medium, HEPES (Invitrogen, cat. 22400105) with 10% defined fetal bovine serum (HyClone Laboratories Inc., cat. SH30070.03) and 2 mM L-glutamine (Invitrogen, cat. 25030081). The pooled donor HUVEC were cultured in endothelial cell growth medium 2 (PromoCell, Heidelberg, Germany, cat. C-22011) and the hMSC were cultured in mesenchymal stem cell growth medium 2 (PromoCell, cat. C-28009). For all experiments, HUVEC and hMSC were used at passages </=5, while the malignant cell lines were used at passages </=15. […]
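Further: spheroids exposed to agents for 7 days.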
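Wherever viability, T/C is given: 100% = DMSO vehicle control viability.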

SMILES	viability, T/C
CCN1CCN(Cc2ccc(Nc3ncc(F)c(-c4cc(F)c5nc(C)n(C(C)C)c5c4)n3)nc2)CC1	62.1% [middle of 5 runs]
CCNC(=O)CC1N=C(c2ccc(Cl)cc2)c2cc(OC)ccc2-n2c(C)nnc21 (configuration not stated)	62.2% [middle of 5 runs]
COc1cc(Nc2ncc3c(n2)-c2ccc(Cl)cc2C(c2c(F)cccc2OC)=NC3)ccc1C(=O)O	45.2% [middle of 5 runs]
COc1cc(OC)cc(N(CCNC(C)C)c2ccc3ncc(-c4cnn(C)c4)nc3c2)c1	102% [middle of 5 runs]
COc1cc2nccc(Oc3ccc(NC(=O)C4(C(=O)Nc5ccc(F)cc5)CC4)cc3)c2cc1OC	96.2% [middle of 5 runs]
Cn1nccc1Nc1nccc(-c2cc3c(s2)C(C)(C)N(CCN2CCOCC2)C3=O)n1	77.6% [middle of 5 runs]
O=C(c1cc(Cc2n[nH]c(=O)c3ccccc23)ccc1F)N1CCN(C(=O)C2CC2)CC1	96.4% [middle of 5 runs]

same assay, conditions: compound 1 µM; stronger effect = lower value

SMILES	viability, T/C
C=CC(=O)N1CCN(c2nc(OCC3CCCN3C)nc3c2CCN(c2cccc4cccc(C)c24)C3)CC1CC#N (configuration not stated)	57.9% [middle of 17 runs]
CC(=O)OC12COC1CC(O)C1(C)C(=O)C(O)C3=C(C)C(OC(=O)C(O)C(NC(=O)OC(C)(C)C)c4ccccc4)CC(O)(C(OC(=O)c4ccccc4)C21)C3(C)C (configuration not stated)	34% [middle of 5 runs]
CC(C)NCC(C(=O)N1CCN(c2ncnc3c2C(C)CC3O)CC1)c1ccc(Cl)cc1 (configuration not stated)	64.6% [middle of 5 runs]
CC1(C)CCC(CN2CCN(c3ccc(C(=O)NS(=O)(=O)c4ccc(NCC5CCOCC5)c([N+](=O)[O-])c4)c(Oc4cnc5[nH]ccc5c4)c3)CC2)=C(c2ccc(Cl)cc2)C1	96.1% [middle of 5 runs]
CC1COCCN1c1cc(-c2ccnn2C)c2ccnc(-c3ccn[nH]3)c2n1 (configuration not stated)	20.6% [middle of 5 runs]
CCN1CCN(Cc2ccc(Nc3ncc(F)c(-c4cc(F)c5nc(C)n(C(C)C)c5c4)n3)nc2)CC1	62.6% [middle of 5 runs]
CCNC(=O)CC1N=C(c2ccc(Cl)cc2)c2cc(OC)ccc2-n2c(C)nnc21 (configuration not stated)	44.5% [middle of 5 runs]
COc1cc(Nc2ncc3c(n2)-c2ccc(Cl)cc2C(c2c(F)cccc2OC)=NC3)ccc1C(=O)O	51.5% [middle of 5 runs]
COc1cc(OC)cc(N(CCNC(C)C)c2ccc3ncc(-c4cnn(C)c4)nc3c2)c1	103% [middle of 5 runs]
COc1cc2nccc(Oc3ccc(NC(=O)C4(C(=O)Nc5ccc(F)cc5)CC4)cc3)c2cc1OC	104% (2×) and 101% (2×) and 99.7%
Cn1nccc1Nc1nccc(-c2cc3c(s2)C(C)(C)N(CCN2CCOCC2)C3=O)n1	61.5% [middle of 5 runs]
O=C(c1cc(Cc2n[nH]c(=O)c3ccccc23)ccc1F)N1CCN(C(=O)C2CC2)CC1	100% [middle of 5 runs]

same assay, conditions: compound 3.16 µM; stronger effect = lower value

SMILES	viability, T/C
CC(=O)OC12COC1CC(O)C1(C)C(=O)C(O)C3=C(C)C(OC(=O)C(O)C(NC(=O)OC(C)(C)C)c4ccccc4)CC(O)(C(OC(=O)c4ccccc4)C21)C3(C)C (configuration not stated)	34.3% [middle of 5 runs]
CC(C)NCC(C(=O)N1CCN(c2ncnc3c2C(C)CC3O)CC1)c1ccc(Cl)cc1 (configuration not stated)	50.4% [middle of 5 runs]
CC1(C)CCC(CN2CCN(c3ccc(C(=O)NS(=O)(=O)c4ccc(NCC5CCOCC5)c([N+](=O)[O-])c4)c(Oc4cnc5[nH]ccc5c4)c3)CC2)=C(c2ccc(Cl)cc2)C1	21% [middle of 5 runs]
CC1COCCN1c1cc(-c2ccnn2C)c2ccnc(-c3ccn[nH]3)c2n1 (configuration not stated)	18.9% [middle of 5 runs]
CCNC(=O)CC1N=C(c2ccc(Cl)cc2)c2cc(OC)ccc2-n2c(C)nnc21 (configuration not stated)	39.8% [middle of 5 runs]
COc1cc(Nc2ncc3c(n2)-c2ccc(Cl)cc2C(c2c(F)cccc2OC)=NC3)ccc1C(=O)O	65.7% [middle of 5 runs]
COc1cc(OC)cc(N(CCNC(C)C)c2ccc3ncc(-c4cnn(C)c4)nc3c2)c1	105% [middle of 5 runs]
COc1cc2nccc(Oc3ccc(NC(=O)C4(C(=O)Nc5ccc(F)cc5)CC4)cc3)c2cc1OC	92.9% [middle of 5 runs]
Cn1nccc1Nc1nccc(-c2cc3c(s2)C(C)(C)N(CCN2CCOCC2)C3=O)n1	43.7% [middle of 5 runs]
O=C(c1cc(Cc2n[nH]c(=O)c3ccccc23)ccc1F)N1CCN(C(=O)C2CC2)CC1	92.1% [middle of 5 runs]

same assay, conditions: compound 10 µM; stronger effect = lower value

SMILES	viability, T/C
CC(C)NCC(C(=O)N1CCN(c2ncnc3c2C(C)CC3O)CC1)c1ccc(Cl)cc1 (configuration not stated)	41.8% [middle of 5 runs]
CC1(C)CCC(CN2CCN(c3ccc(C(=O)NS(=O)(=O)c4ccc(NCC5CCOCC5)c([N+](=O)[O-])c4)c(Oc4cnc5[nH]ccc5c4)c3)CC2)=C(c2ccc(Cl)cc2)C1	7.62% [middle of 5 runs]
CCNC(=O)CC1N=C(c2ccc(Cl)cc2)c2cc(OC)ccc2-n2c(C)nnc21 (configuration not stated)	36.7% [middle of 5 runs]
COc1cc(Nc2ncc3c(n2)-c2ccc(Cl)cc2C(c2c(F)cccc2OC)=NC3)ccc1C(=O)O	69% [middle of 5 runs]
COc1cc(OC)cc(N(CCNC(C)C)c2ccc3ncc(-c4cnn(C)c4)nc3c2)c1	87.5% [middle of 5 runs]
COc1cc2nccc(Oc3ccc(NC(=O)C4(C(=O)Nc5ccc(F)cc5)CC4)cc3)c2cc1OC	87.7% [middle of 5 runs]
Cn1nccc1Nc1nccc(-c2cc3c(s2)C(C)(C)N(CCN2CCOCC2)C3=O)n1	38.1% [middle of 5 runs]
O=C(c1cc(Cc2n[nH]c(=O)c3ccccc23)ccc1F)N1CCN(C(=O)C2CC2)CC1	59.7% [middle of 5 runs]

same assay, conditions: compound alone; run of 08/26/2021

SMILES	IC50
C=CC(=O)N1CCN(c2nc(OCC3CCCN3C)nc3c2CCN(c2cccc4cccc(C)c24)C3)CC1CC#N (configuration not stated)	1.07 µM [middle of 5 runs]
CC1OCC2(CCN(c3cnc(Sc4ccnc(N)c4Cl)c(N)n3)CC2)C1N (configuration not stated)	785 nM [middle of 5 runs]

same assay, conditions: compound alone; run of 09/02/2021

SMILES	IC50
C=CC(=O)N1CCN(c2nc(OCC3CCCN3C)nc3c2CCN(c2cccc4cccc(C)c24)C3)CC1CC#N (configuration not stated)	1.12 µM [middle of 6 runs]
CC1OCC2(CCN(c3cnc(Sc4ccnc(N)c4Cl)c(N)n3)CC2)C1N (configuration not stated)	535 nM [middle of 6 runs]

same assay, conditions: curve of compound

SMILES	IC50
CC(=O)Nc1cccc(-n2c(=O)n(C3CC3)c(=O)c3c(Nc4ccc(I)cc4F)n(C)c(=O)c(C)c32)c1	5.93 nM [middle of 5 runs]
CC(=O)OC12COC1CC(O)C1(C)C(=O)C(O)C3=C(C)C(OC(=O)C(O)C(NC(=O)OC(C)(C)C)c4ccccc4)CC(O)(C(OC(=O)c4ccccc4)C21)C3(C)C (configuration not stated)	< 0.01 µM
CC(C)NCC(C(=O)N1CCN(c2ncnc3c2C(C)CC3O)CC1)c1ccc(Cl)cc1 (configuration not stated)	2.93 µM [middle of 5 runs]
CC(C)n1nc(-c2ccc3oc(N)nc3c2)c2c(N)ncnc21	4 nM [middle of 5 runs]
CC1(C)CCC(CN2CCN(c3ccc(C(=O)NS(=O)(=O)c4ccc(NCC5CCOCC5)c([N+](=O)[O-])c4)c(Oc4cnc5[nH]ccc5c4)c3)CC2)=C(c2ccc(Cl)cc2)C1	1.99 µM [middle of 5 runs]
CC1COCCN1c1cc(-c2ccnn2C)c2ccnc(-c3ccn[nH]3)c2n1 (configuration not stated)	23.8 nM [middle of 5 runs]
CC1OCC2(CCN(c3cnc(Sc4ccnc(N)c4Cl)c(N)n3)CC2)C1N (configuration not stated)	1.1 µM [middle of 5 runs]
CCN1CCN(Cc2ccc(Nc3ncc(F)c(-c4cc(F)c5nc(C)n(C(C)C)c5c4)n3)nc2)CC1	> 1 µM
CCNC(=O)CC1N=C(c2ccc(Cl)cc2)c2cc(OC)ccc2-n2c(C)nnc21 (configuration not stated)	798 nM [middle of 5 runs]
CN(C)C/C=C/C(=O)Nc1cc2c(Nc3ccc(F)c(Cl)c3)ncnc2cc1O[C@H]1CCOC1	> 0.1 µM
COc1cc(Nc2ncc3c(n2)-c2ccc(Cl)cc2C(c2c(F)cccc2OC)=NC3)ccc1C(=O)O	10 µM and > 10 µM
COc1cc(OC)cc(N(CCNC(C)C)c2ccc3ncc(-c4cnn(C)c4)nc3c2)c1	> 10 µM
COc1cc2nccc(Oc3ccc(NC(=O)C4(C(=O)Nc5ccc(F)cc5)CC4)cc3)c2cc1OC	> 10 µM
Cn1nccc1Nc1nccc(-c2cc3c(s2)C(C)(C)N(CCN2CCOCC2)C3=O)n1	2.35 µM [middle of 5 runs]
Cn1ncnc1[C@H]1c2n[nH]c(=O)c3cc(F)cc(c23)N[C@@H]1c1ccc(F)cc1	> 0.1 µM
O=C(c1cc(Cc2n[nH]c(=O)c3ccccc23)ccc1F)N1CCN(C(=O)C2CC2)CC1	> 10 µM
